According to patent publication US20240002332A1, “Small Molecule Inhibitors of SARS-CoV-2 Infections” (priority 2020, published 2024):
Where “and” joins values, the source holds several entries; their conditions need not be identical. Identical values can stand only once. Like-named read-outs stand apart in the source and are kept apart here.

Key:
Vero-E6 = test: Cytotoxicity counter screen (cell viability, CellTiter-Glo); assay type: cell-based
Description: Compound cytotoxicity was assessed in a BSL-2 counter screen as follows: Cell culture media (MEM, 1% Pen/Strep/GlutaMax, 1% HEPES, 2% HI FBS) was dispensed at 5 μl/well into ARPs and incubated at room temperature to allow for compound dissolution. Vero-E6 (selected for high ACE2 expression) was dispensed into assay plates at 4000 cells/well in 25 μl media. Assay plates were incubated for 72 h at 37 C, 5% CO2, 90% humidity. Then, 30 μl/well of CellTiter-Glo (Promega #G7573) was dispensed into the assay plate. Luminescence was read using a BMG PHERAstar plate reader following incubation at room temperature for 10 min to measure cell viability.

SARS-CoV-2 = details: EIDD-2801 250 mpk BID; Compound P3 60 mpk BID
Description: EIDD-2801 (molnupiravir) was chosen as the positive control at 250 mpk BID oral dose.

[1] = Kinetic solubility (Tier I ADME); details: kinetic from dmso stock
[2] = system: SARS CoV-2 (USA_WA1/2020); test: Cytopathic effect (CPE) assay; assay type: cell-based; details: Severe acute respiratory syndrome coronavirus 2, Vero C1008, 72 h
in vivo = details: C57BL/6, mouse, po, C57BL/6 mice; for AUC(0-inf): AUCInf; for AUC(0-inf) / AUC(0-t) / Cmax / Tmax: Compound P3 in plasma; for AUC(0-t): AUClast; for half-life: t1/2, Compound P3 in plasma
[3] = Tolerability study in mice, 7 days QD, PK on the 7th day; details: 25, 50 and 100 mg/kg PO QD 7 days, C57BL/6J mice
[4] = Pharmacokinetics in male hamsters, plasma and lung, IV 3 mg/kg or PO 30 mg/kg; details: for Kp at 0.083 h / Kp at 4 h / Kp at 2 h / Kp at 8 h / Kp at 0.5 h / Kp at 1 h / Kp at […]: Ratio (Lung/Plasma)
Description: Compound P3 was administered intravenously (3 mg/kg dosing in 20% HP-β-CD in water) or orally (30 mg/kg dosing in 20% HP-β-CD in water).

[5] = Parallel artificial membrane permeability assay (PAMPA); details: PAMPA, pH 5
[6] = Compound P3 in plasma, PO 50 mg/kg (PO_A), C57BL/6 mice, individual mice, 50 mg/kg
[7] = Compound P3 in plasma, PO 100 mg/kg (PO_B), C57BL/6 mice, individual mice, 100 mg/kg
[8] = 50 mg/kg, PO 50 mg/kg (PO_A), Mean n = 3
[9] = 50 mg/kg, PO 50 mg/kg (PO_A), individual mice
[10] = 100 mg/kg, PO 100 mg/kg (PO_B), Mean n = 3
[11] = 100 mg/kg, PO 100 mg/kg (PO_B), individual mice
[12] = Compound P3 IV 3 mg/kg, 0.083 h, individual animals, 3 mg/kg
[13] = Compound P3 IV 3 mg/kg, 4 h, individual animals, 3 mg/kg
[14] = Compound P3 IV 3 mg/kg, 8 h, individual animals, 3 mg/kg
[15] = Compound P3 IV 3 mg/kg, 24 h, individual animals, 3 mg/kg
[16] = Compound P3 PO 30 mg/kg, 0.5 h, individual animals, 30 mg/kg
[17] = Compound P3 PO 30 mg/kg, 1 h, individual animals, 30 mg/kg
[18] = Compound P3 PO 30 mg/kg, 2 h, individual animals, 30 mg/kg
[19] = Compound P3 PO 30 mg/kg, 4 h, individual animals, 30 mg/kg
[20] = Compound P3 PO 30 mg/kg, 8 h, individual animals, 30 mg/kg
[21] = Compound P3 intravenously or orally

Which results are given for `O=C(Nc1ccc([N+](=O)[O-])cc1Cl)c1cc(Cl)ccc1OC(=O)N1CCNCC1` [Compound P3, 4-chloro-2-((2-chloro-4-nitrophenyl)carbamoyl)phenyl piperazine-1-carboxylate]?
IC50 (Vero-E6; Chlorocebus sabaeus, Vero C1008, 72 h, read-out: IC50 (μM) cell viability): 7.21 µM; Efficacy cell viability (Vero-E6; uninfected Vero-E6, 72 h, CellTiter-Glo): −99.8; IHC immunoreactivity staining in the right lung (SARS-CoV-2): lowered in severity; solubility [1]: > 43 µg/mL; IC50 [2]: 4.05 µM; Emax ([2]; read-out: Efficacy CPE assay): 40.7%; AUC_% Extrap (Compound P3 in plasma, PO 50 mg/kg (PO_A), C57BL/6 mice, Mean n = 3): 33.5%; AUClast [6]: 12332 ng·h/mL and 10489 ng·h/mL; Cmax [6]: 1920 ng/mL and 1560 ng/mL; Tmax [6]: 0.500 h; t1/2 [6]: 3.70 h; AUC_% Extrap (Compound P3 in plasma, PO 100 mg/kg (PO_B), C57BL/6 mice, Mean n = 3): 28.2%; AUCInf [7]: 33619 ng·h/mL and 24577 ng·h/mL and 56087 ng·h/mL; AUC_% Extrap [7]: 22.7% and 23.7% and 38.3%; AUClast [7]: 18757 ng·h/mL and 34617 ng·h/mL; Cmax [7]: 2340 ng/mL and 3880 ng/mL; t1/2 [7]: 13.8 h and 19.8 h; in vivo conversion to niclosamide (Compound P3 oral, mice): effectively converted in vivo to the active niclosamide; plasma exposure of niclosamide vs that reported for oral niclosamide (oral Compound P3, mice): much improved plasma exposures of niclosamide; AUC(0-inf) (in vivo; [8]): 88700 ng·h/mL; AUC(0-t) (in vivo; [8]): 9730 ng·h/mL; AUC(0-t) (in vivo; [9]): 6360 ng·h/mL; Cmax (in vivo; [8]): 1460 ng/mL; Cmax (in vivo; [9]): 1140 ng/mL; half-life (in vivo; [8]): 4.14 h; half-life (in vivo; [9]): 4.58 h; Tmax (in vivo; [8]): 2 h; AUC(0-inf) (in vivo; [10]): 38100 ng·h/mL; AUC(0-t) (in vivo; [10]): 26400 ng·h/mL; AUC(0-t) (in vivo; [11]): 26000 ng·h/mL; Cmax (in vivo; [10]): 3060 ng/mL; Cmax (in vivo; [11]): 2970 ng/mL; half-life (in vivo; [10]): 15.3 h; half-life (in vivo; [11]): 12.4 h; Tmax (in vivo; [10]): 1 h; Tmax (in vivo; [11]): 1 h; body weight [3]: no dose dependent weight loss; tolerability [3]: tolerable for the study period, with no gross findings; Lung [4, 12]: 15360 ng/g and 23120 ng/g; Ratio (Lung/Plasma) [4, 12]: 36.0 and 31.0; Lung [4, 13]: 1436 ng/g and 2904 ng/g and 1800 ng/g; Ratio (Lung/Plasma) [4, 13]: 111 and 59.4; Lung [4, 14]: 263 ng/g and 275 ng/g; Ratio (Lung/Plasma) [4, 14]: 45.3 and 76.3 and 109; plasma concentration ([4]; Compound P3 IV 3 mg/kg, 24 h, individual animals): BLOQ; Lung [4, 15]: 8.44 ng/g and 3.59 ng/g; lung concentration, Conc. (ng/mL) [4, 15]: BLOQ; Lung [4, 16]: 113200 ng/g and 72400 ng/g and 33400 ng/g; Ratio (Lung/Plasma) [4, 16]: 53.2 and 59.7; Lung [4, 17]: 82400 ng/g and 105600 ng/g; Ratio (Lung/Plasma) [4, 17]: 69.2 and 130; Lung [4, 18]: 102000 ng/g and 74400 ng/g; Ratio (Lung/Plasma) [4, 18]: 96.2 and 108; Lung [4, 19]: 48800 ng/g and 65200 ng/g; Ratio (Lung/Plasma) [4, 19]: 215 and 97.6 and 73.2; Lung [4, 20]: 6800 ng/g and 2928 ng/g and 7080 ng/g; Ratio (Lung/Plasma) [4, 20]: 191 and 311; plasma concentration ([4]; Compound P3 PO 30 mg/kg, 24 h, individual animals): BLOQ; Lung ([4]; Compound P3 PO 30 mg/kg, 24 h, individual animals, 30 mg/kg): 38.2 ng/g and 22.6 ng/g and 11.1 ng/g; amount of active metabolite in lung tissue relative to plasma concentration [4, 21]: significantly higher amount of active metabolite in lung tissue; overall concentration of active metabolite [4, 21]: provided a higher overall concentration of active metabolite; concentration at 0.083 h ([4]; male, hamster, in vivo, iv, 3 mg/kg, Lung (ng/g), Compound P3 IV 3 mg/kg, 0.083 h, individual animals): 27400 ng/g; concentration at 8 h ([4]; male, hamster, in vivo, iv, 3 mg/kg, Lung (ng/g), Compound P3 IV 3 mg/kg, 8 h, individual animals): 270 ng/g; Kp at 0.083 h ([4]; male, hamster, in vivo, iv, 3 mg/kg, Compound P3 IV 3 mg/kg, 0.083 h, individual animals): 34.1; Kp at 4 h ([4]; male, hamster, in vivo, iv, 3 mg/kg, Compound P3 IV 3 mg/kg, 4 h, individual animals): 68.4; Kp at 0.083 h ([4]; male, hamster, in vivo, iv, 3 mg/kg, Mean, Compound P3 IV 3 mg/kg, 0.083 h): 33.7; Kp at 2 h ([4]; male, hamster, in vivo, iv, 3 mg/kg, Mean, Compound P3 IV 3 mg/kg, 2 h): 81; Kp at 4 h ([4]; male, hamster, in vivo, iv, 3 mg/kg, Mean, Compound P3 IV 3 mg/kg, 4 h): 80; Kp at 8 h ([4]; male, hamster, in vivo, iv, 3 mg/kg, Mean, Compound P3 IV 3 mg/kg, 8 h): 77; concentration at 1 h ([4]; male, hamster, in vivo, po, 30 mg/kg, Lung (ng/g), Compound P3 PO 30 mg/kg, 1 h, individual animals): 106000 ng/g; concentration at 2 h ([4]; male, hamster, in vivo, po, 30 mg/kg, Lung (ng/g), Compound P3 PO 30 mg/kg, 2 h, individual animals): 67600 ng/g; concentration at 4 h ([4]; male, hamster, in vivo, po, 30 mg/kg, Lung (ng/g), Compound P3 PO 30 mg/kg, 4 h, individual animals): 65600 ng/g; Kp at 0.5 h ([4]; male, hamster, in vivo, po, 30 mg/kg, Compound P3 PO 30 mg/kg, 0.5 h, individual animals): 89.1; Kp at 1 h ([4]; male, hamster, in vivo, po, 30 mg/kg, Compound P3 PO 30 mg/kg, 1 h, individual animals): 98.1; Kp at 2 h ([4]; male, hamster, in vivo, po, 30 mg/kg, Compound P3 PO 30 mg/kg, 2 h, individual animals): 88.6; Kp at 8 h ([4]; male, hamster, in vivo, po, 30 mg/kg, Compound P3 PO 30 mg/kg, 8 h, individual animals): 194; Kp at […] ([4]; male, hamster, in vivo, po, 30 mg/kg, Compound P3 PO 30 mg/kg, individual animals): 34.8; Kp at 0.5 h ([4]; male, hamster, in vivo, po, 30 mg/kg, Mean, Compound P3 PO 30 mg/kg, 0.5 h): 67.4; Kp at 1 h ([4]; male, hamster, in vivo, po, 30 mg/kg, Mean, Compound P3 PO 30 mg/kg, 1 h): 99; Kp at 2 h ([4]; male, hamster, in vivo, po, 30 mg/kg, Mean, Compound P3 PO 30 mg/kg, 2 h): 98; Kp at 4 h ([4]; male, hamster, in vivo, po, 30 mg/kg, Mean, Compound P3 PO 30 mg/kg, 4 h): 129; Kp at 8 h ([4]; male, hamster, in vivo, po, 30 mg/kg, Mean, Compound P3 PO 30 mg/kg, 8 h): 232; Kp at […] ([4]; male, hamster, in vivo, po, 30 mg/kg, Mean, Compound P3 PO 30 mg/kg): 32.3; Papp [5]: 500 ×10⁻⁶ cm/s
